The record followed here is patent US4636563A, “Antipsychotic γ-carbolines” (American Home Products Corporation, priority 1985, dated 1987).

The test system of assay [1] is conditioned avoidance responding (lever-response). Nature of the assay: Conditioned avoidance, lever-response (L-R). It counts as in vivo, male CD rats. The settings on record: Rattus norvegicus, po; 95% confidence interval in brackets; read-out: L-R AB50 (50% block in avoidance responding). From the text:
(§1) The antipsychotic properties of the compounds of this invention were established by standard pharmacologically accepted procedures involving two conditioned avoidance studies in which trained male CD rats (Charles River), 400-450 gm body weight are exposed to a fifteen second warning tone (conditioned stimulus) continued for an additional fifteen seconds accompanied by electric shock. The rat can avoid the electric shock by depression of a response lever (lever-response) or in a different study by jumping to an exposed shelf (shelf-jump response). In either test situation, a response during the initial warning tone is considered an avoidance response while a response during shock delivery is considered an escape response. The avoidance response is determined and expressed as a percentage of total trials from an appropriate number of trials and a 50% block in avoidance responding (AB50) is obtained from a dose-effect regression line. The shelf-jump response test procedure follows that of Herman et al., Comm. in Psychopharm., 3, pp. 165-171 (1979).
(§2) The following examples illustrate the production of compounds of this invention. After each example the pharmacological evaluation for the compound produced is presented. The conditioned avoidance tests are reported as relative activity for the shelf-jump (S-J) at the intraperitoneal (i.p.) dose administered in mg/kg and the AB50 is presented for the lever-response (L-R) test at the oral (p.o.) dose in mg/kg. The inhibition constant is reported for limbic D-2 binding expressed in nM concentration. Similarly, the inhibition constant for cortical 5-HT2 binding is reported as the inhibition constant in nM concentration.

Assay [2] addresses T1, limbic D-2 (dopamine receptor) (Rattus norvegicus, UniProt P61169).
T1 construct: from tissue; host or cells: homogenized limbic brain tissue
Nature of the assay: Limbic D-2 binding (3H-spiroperidol, homogenized limbic brain tissue). The settings on record: 95% confidence interval in brackets, read-out: Limbic D-2 inhibition constant (Ki). The method, then: Binding in the presence of the test compound is expressed as a percent of specific binding (total binding less binding in the presence of 1 μM (+)butaclamol). An inhibition constant (Ki) is calculated for each test compound to catagorize its limbic D-2 binding potential. The larger the number, the less potential for dopamine receptor binding and attendant side effects from administration of the antipsychotic agent.
as §2

For assay [3], the system named is conditioned avoidance responding (shelf-jump). Nature of the assay: Conditioned avoidance, shelf-jump response (S-J). It counts as in vivo, male CD rats.
Description: as §1, §2

For another assay, the target named is T2, serotonin-2 receptors (Rattus norvegicus, UniProt P14842).
T2 construct: In an analogous test procedure employing brain cortical tissue; from tissue; host or cells: brain cortical tissue
Briefly: Cortical 5-HT2 binding (brain cortical tissue). The settings on record: for Ki: 95% confidence interval in brackets, read-out: Cortical 5-HT2 inhibition constant (Ki).
Description: as §2

T2 sequence (P14842 whole entry): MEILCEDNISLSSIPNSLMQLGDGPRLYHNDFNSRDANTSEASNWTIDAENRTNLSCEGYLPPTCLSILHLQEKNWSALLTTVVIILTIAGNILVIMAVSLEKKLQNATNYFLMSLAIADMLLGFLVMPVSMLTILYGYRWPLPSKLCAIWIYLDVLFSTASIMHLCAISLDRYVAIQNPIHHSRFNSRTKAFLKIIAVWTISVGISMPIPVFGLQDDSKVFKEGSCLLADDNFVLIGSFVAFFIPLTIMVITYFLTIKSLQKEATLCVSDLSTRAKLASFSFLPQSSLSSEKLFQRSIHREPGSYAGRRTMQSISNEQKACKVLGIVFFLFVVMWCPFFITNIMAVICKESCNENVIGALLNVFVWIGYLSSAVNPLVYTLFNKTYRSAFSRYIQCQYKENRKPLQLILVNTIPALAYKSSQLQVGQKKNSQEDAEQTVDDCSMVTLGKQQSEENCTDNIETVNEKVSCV
T1 sequence (P61169 whole entry): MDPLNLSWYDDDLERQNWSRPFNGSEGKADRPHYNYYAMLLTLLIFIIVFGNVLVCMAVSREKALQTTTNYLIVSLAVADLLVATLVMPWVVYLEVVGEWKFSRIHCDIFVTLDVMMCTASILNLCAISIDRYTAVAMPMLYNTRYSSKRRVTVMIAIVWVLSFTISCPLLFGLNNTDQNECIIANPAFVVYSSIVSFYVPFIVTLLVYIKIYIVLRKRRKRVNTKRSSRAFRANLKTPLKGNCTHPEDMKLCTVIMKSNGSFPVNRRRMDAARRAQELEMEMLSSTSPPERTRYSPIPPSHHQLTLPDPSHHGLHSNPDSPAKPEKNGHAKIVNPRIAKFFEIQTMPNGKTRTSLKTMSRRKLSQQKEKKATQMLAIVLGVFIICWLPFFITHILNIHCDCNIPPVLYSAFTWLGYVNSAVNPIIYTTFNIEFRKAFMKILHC

As to `Fc1ccc2[nH]c3c(c2c1)CN(CCCCc1ccncc1)CC3` [Example 1, 8-Fluoro-2,3,4,5-tetrahydro-2-[4-(4-pyridinyl)butyl]-1H-pyrido[4,3-b]-indole], the ED50 in assay [1] came to 15.1 mg/kg. The Ki came to 143 nM in assay [2] and 480 nM on serotonin-2 receptors. Also, the S-J relative activity entry in assay [3] (20 mg/kg i.p.) was “Active”.

Regarding `Fc1ccc2[nH]c3c(c2c1)CN(CCc1ccccn1)CC3` [Example 2, 8-Fluoro-2,3,4,5-tetrahydro-2-[2-(2-pyridinyl)ethyl]-1H-pyrido[4,3-b]indole], the ED50 in assay [1] stood at 37.6 mg/kg. Besides, the values for the Ki (in assay [2]; at serotonin-2 receptors) were 26 nM and 173 nM, respectively. The S-J relative activity entry in assay [3] (20 mg/kg i.p.) is recorded as “Active”.

For `Fc1ccc2[nH]c3c(c2c1)CN(CCc1ccncc1)CC3` [Example 3, 8-Fluoro-2,3,4,5-tetrahydro-2-[2-(4-pyridinyl)ethyl]1H-pyrido[4,3-b]indole], the Ki on serotonin-2 receptors came to 211 nM.

For `Fc1ccc2[nH]c3c(c2c1)CN(CCc1ccc2ccccc2n1)CC3` [Example 4, 8-Fluoro-2,3,4,5-tetrahydro-2-[2-(2-quinolinyl)ethyl]-1H-pyrido[4-3-b]indole], the Ki in assay [2] was determined as 185 nM. The S-J relative activity result in assay [3] (20 mg/kg i.p.) is recorded as “Active”.

Consider `c1ccc2nc(CCN3CCc4[nH]c5ccccc5c4C3)ccc2c1` [Example 5, 2,3,4,5-Tetrahydro-2-[2-(2-quinolinyl)ethyl]-1H-pyrido[4,3-b]indole], for which, in assay [3] (40 mg/kg i.p.), the S-J relative activity result was “Active”.

As to `c1ccc2c3c([nH]c2c1)CCN(CCCCc1ccncc1)C3` [Example 6, 2,3,4,5-Tetrahydro-2-[4-(4-pyridinyl)butyl]-1H-pyrido[4,3-b]indole], the ED50 in assay [1] was greater than 20 mg/kg. Moreover, the S-J relative activity entry in assay [3] (20 mg/kg i.p.) and in assay [3] (40 mg/kg i.p.) was “Active” throughout.

Take `c1cncc(CCCN2CCc3[nH]c4ccccc4c3C2)c1` [Example 7, 2,3,4,5-Tetrahydro-2-[3-(3-pyridinyl)propyl]-1H-pyrido[4,3-b]indole]: in assay [1], the ED50 came out at 33.1 mg/kg. For the same compound, in assay [3] (40 mg/kg i.p.), the S-J relative activity result is “Active”. In addition, the Ki at serotonin-2 receptors amounted to 252 nM.

As to `Clc1ccc2[nH]c3c(c2c1)CN(CCCCc1ccncc1)CC3` [Example 8, 8-Chloro-2,3,4,5-tetrahydro-2-[4-(4-pyridinyl)butyl]-1H-pyrido[4,3-b]indole], in assay [1], the ED50 is 36.1 mg/kg. Further, the inhibition constant (Ki) in assay [2] is 106 nM; at serotonin-2 receptors, 60 nM. In addition, the S-J relative activity entry in assay [3] (40 mg/kg i.p.) is “Active”.

With `Clc1ccc2[nH]c3c(c2c1)CN(CCc1ccccn1)CC3` [Example 9, 8-Chloro-2,3,4,5-tetrahydro-2-[2-(2-pyridinyl)ethyl]-1H-pyrido[4,3-b]indole], the ED50 in assay [1] was greater than 40 mg/kg. Besides, the S-J relative activity result in assay [3] (40 mg/kg i.p.) is given as “Active”.

With `Clc1ccc2[nH]c3c(c2c1)CN(CCc1ccc2ccccc2n1)CC3` [Example 10, 8-Chloro-2,3,4,5-tetrahydro-2-[2-(2-quinolinyl)ethyl]-1H-pyrido-[4,3-b]indole], the ED50 in assay [1] is greater than 40 mg/kg. Moreover, the Ki in assay [2] came out at 82 nM. In assay [3] (40 mg/kg i.p.), the S-J relative activity result is “Active”.

As for `Fc1ccc2[nH]c3c(c2c1)CN(CCCc1cccnc1)CC3` [Example 11, 8-Fluoro-2,3,4,5-tetrahydro-2-[3-(3-pyridinyl)propyl]1H-pyrido[4,3-b]indole], in assay [1], the ED50 stood at 14.4 mg/kg. The Ki turned out to be 395 nM in assay [2] and 136 nM on serotonin-2 receptors. In assay [3] (20 mg/kg i.p.), the S-J relative activity entry is recorded as “Active”.

Take `Clc1ccc2[nH]c3c(c2c1)CN(CCCc1ccccn1)CC3` [Example 12, 8-Chloro-2,3,4,5-tetrahydro-2-[3-(2-pyridinyl)-propyl]-1H-pyrido[4,3-b]indole]: the ED50 in assay [1] was greater than 40 mg/kg. Besides, the Ki in assay [2] amounted to 126 nM; at serotonin-2 receptors, 28 nM. Further, the S-J relative activity entry in assay [3] (40 mg/kg i.p.) is listed as “Active”.

As for `NCCc1ccc(O)c(O)c1` [dopamine, reference compound], the “Ki at serotonin-2 receptors” value at serotonin-2 receptors (reference ligands) was “inactive”.
